Data: PubChem BioAssay AID1259407 (Chemical Carcinogenesis Research Information System (CCRIS), 2018)
The source made the active and inactive calls. How the calls were made is not given here.

System: CCRIS mutagenicity, Ames/micronucleus/aberration tests
Test: CCRIS mutagenicity studies
[1] = Test System: AMES SALMONELLA TYPHIMURIUM, Strain/Indicator: TA98, Metabolic Activation: NONE, Method: PREINCUBATION
[2] = Test System: AMES SALMONELLA TYPHIMURIUM, Strain/Indicator: TA100, Metabolic Activation: NONE, Method: PREINCUBATION
[3] = Test System: AMES SALMONELLA TYPHIMURIUM, Strain/Indicator: TA98, Metabolic Activation: NONE, Method: STANDARD PLATE
[4] = Test System: AMES SALMONELLA TYPHIMURIUM, Strain/Indicator: TA98, Metabolic Activation: RAT, LIVER, S-9, AROCLOR 1254, Method: STANDARD PLATE
[5] = Test System: AMES SALMONELLA TYPHIMURIUM, Strain/Indicator: TA100, Metabolic Activation: NONE, Method: STANDARD PLATE
[6] = Test System: AMES SALMONELLA TYPHIMURIUM, Strain/Indicator: TA100, Metabolic Activation: RAT, LIVER, S-9, AROCLOR 1254, Method: STANDARD PLATE
[7] = Test System: AMES SALMONELLA TYPHIMURIUM, Strain/Indicator: TA98, Metabolic Activation: S-9, Method: STANDARD PLATE
[8] = Test System: AMES SALMONELLA TYPHIMURIUM, Strain/Indicator: TA100, Metabolic Activation: S-9, Method: STANDARD PLATE

O[C@@H]1[C@@H]2O[C@@H]2c2c(cc3ccc4cccc5c6ccccc6c2c3c45)[C@H]1O
mutagenic call (Test System: AMES SALMONELLA TYPHIMURIUM, Strain/Indicator: TA97, Metabolic Activation: NONE, Method: PREINCUBATION (EXPOSURE IN MEDIUM WITH KCL)): active; positive
mutagenic call (Test System: AMES SALMONELLA TYPHIMURIUM, Strain/Indicator: TA97, Metabolic Activation: NONE, Method: PREINCUBATION (EXPOSURE IN MEDIUM WITHOUT KCL)): active; positive
mutagenic call (Test System: AMES SALMONELLA TYPHIMURIUM, Strain/Indicator: TA98, Metabolic Activation: NONE, Method: PREINCUBATION (EXPOSURE IN MEDIUM WITH KCL)): active; positive
mutagenic call (Test System: AMES SALMONELLA TYPHIMURIUM, Strain/Indicator: TA98, Metabolic Activation: NONE, Method: PREINCUBATION (EXPOSURE IN MEDIUM WITHOUT KCL)): active; positive
mutagenic call (Test System: AMES SALMONELLA TYPHIMURIUM, Strain/Indicator: TA100, Metabolic Activation: NONE, Method: PREINCUBATION (EXPOSURE IN MEDIUM WITH KCL)): active; positive
mutagenic call (Test System: AMES SALMONELLA TYPHIMURIUM, Strain/Indicator: TA100, Metabolic Activation: NONE, Method: PREINCUBATION (EXPOSURE IN MEDIUM WITHOUT KCL)): active; positive
mutagenic call (Test System: AMES SALMONELLA TYPHIMURIUM, Strain/Indicator: TA104, Metabolic Activation: NONE, Method: PREINCUBATION (EXPOSURE IN MEDIUM WITH KCL)): active; positive
mutagenic call (Test System: AMES SALMONELLA TYPHIMURIUM, Strain/Indicator: TA104, Metabolic Activation: NONE, Method: PREINCUBATION (EXPOSURE IN MEDIUM WITHOUT KCL)): active; positive
mutagenic call (Test System: CHINESE HAMSTER V-79, Strain/Indicator: V-79/6-THIOGUANINE, Metabolic Activation: NONE): active; positive

COc1ccc2c3c(cccc13)C(=O)N(C)C2=O
mutagenic call [1]: inactive; negative
mutagenic call (Test System: AMES SALMONELLA TYPHIMURIUM, Strain/Indicator: TA98, Metabolic Activation: S-9, Method: PREINCUBATION): inactive; negative
mutagenic call [2]: inactive; negative
mutagenic call (Test System: AMES SALMONELLA TYPHIMURIUM, Strain/Indicator: TA100, Metabolic Activation: S-9, Method: PREINCUBATION): inactive; negative

O=[N+]([O-])c1cc2c(ccc3ccccc32)c2c1C=C[C@H](O)[C@H]2O
mutagenic call [1]: active; positive
mutagenic call (Test System: AMES SALMONELLA TYPHIMURIUM, Strain/Indicator: TA98, Metabolic Activation: RAT, LIVER, S-9, AROCLOR 1254, Method: PREINCUBATION): inactive; negative
mutagenic call [2]: active; positive
mutagenic call (Test System: AMES SALMONELLA TYPHIMURIUM, Strain/Indicator: TA100, Metabolic Activation: RAT, LIVER, S-9, AROCLOR 1254, Method: PREINCUBATION): active; positive

Cc1cc(C)cc(C)c1
mutagenic call (Test System: AMES SALMONELLA TYPHIMURIUM, Strain/Indicator: TA97A, Metabolic Activation: NONE, Method: STANDARD PLATE): inactive; negative
mutagenic call (Test System: AMES SALMONELLA TYPHIMURIUM, Strain/Indicator: TA97A, Metabolic Activation: RAT, LIVER, S-9, AROCLOR 1254, Method: STANDARD PLATE): inactive; negative
mutagenic call [3]: inactive; negative
mutagenic call [4]: inactive; negative
mutagenic call [5]: inactive; negative
mutagenic call [6]: inactive; negative
mutagenic call (Test System: AMES SALMONELLA TYPHIMURIUM, Strain/Indicator: TA102, Metabolic Activation: NONE, Method: STANDARD PLATE): inactive; negative
mutagenic call (Test System: AMES SALMONELLA TYPHIMURIUM, Strain/Indicator: TA102, Metabolic Activation: RAT, LIVER, S-9, AROCLOR 1254, Method: STANDARD PLATE): inactive; negative

CC(=O)OCc1c2ccccc2cc2ccccc12
mutagenic call [3]: active; positive
mutagenic call [5]: active; positive

CCOc1ccc2c(c1)C(C)=CC(C)(C)N2
mutagenic call [3]: inactive; negative
mutagenic call [7]: inactive; negative
mutagenic call [5]: inactive; negative
mutagenic call [8]: inactive; negative

ClCCBr
mutagenic call (End Point: IN VITRO CHROMOSOMAL ABERRATIONS, Test System: CHL CELLS, Metabolic Activation: RAT, LIVER, S-9, SODIUM PHENOBARBITAL AND 5,6-BENZOFLAVONE): active; positive (structural changes)
mutagenic call (Test System: AMES SALMONELLA TYPHIMURIUM, Strain/Indicator: TA1530, Metabolic Activation: NONE, Method: SPOT): active; positive
mutagenic call (Test System: AMES SALMONELLA TYPHIMURIUM, Strain/Indicator: TA1535, Metabolic Activation: NONE, Method: SPOT): active; positive

N#CC(Cl)(Cl)Cl
mutagenic call (Test System: AMES SALMONELLA TYPHIMURIUM, Strain/Indicator: TA98, Metabolic Activation: NONE, Method: FLUCTUATION (MICROTITER)): inactive; negative
mutagenic call [3]: inactive; negative
mutagenic call (Test System: AMES SALMONELLA TYPHIMURIUM, Strain/Indicator: TA98, Metabolic Activation: RAT LIVER S-9, AROCLOR 1254, Method: FLUCTUATION (MICROTITER)): inactive; negative
mutagenic call [4]: inactive; negative
mutagenic call (Test System: AMES SALMONELLA TYPHIMURIUM, Strain/Indicator: TA100, Metabolic Activation: NONE, Method: FLUCTUATION TEST): active; positive
mutagenic call [5]: inactive; negative
mutagenic call (Test System: AMES SALMONELLA TYPHIMURIUM, Strain/Indicator: TA100, Metabolic Activation: RAT, LIVER, S-9, AROCLOR 1254, Method: FLUCTUATION TEST): inactive; negative
mutagenic call [6]: inactive; negative
mutagenic call (Test System: AMES SALMONELLA TYPHIMURIUM, Strain/Indicator: TA1535, Metabolic Activation: NONE, Method: STANDARD PLATE): inactive; negative
mutagenic call (Test System: AMES SALMONELLA TYPHIMURIUM, Strain/Indicator: TA1535, Metabolic Activation: RAT, LIVER, S-9, AROCLOR 1254, Method: STANDARD PLATE): inactive; negative
mutagenic call (Test System: AMES SALMONELLA TYPHIMURIUM, Strain/Indicator: TA1537, Metabolic Activation: NONE, Method: FLUCTUATION (MICROTITER)): inactive; negative
mutagenic call (Test System: AMES SALMONELLA TYPHIMURIUM, Strain/Indicator: TA1537, Metabolic Activation: RAT LIVER S-9, AROCLOR 1254, Method: FLUCTUATION (MICROTITER)): inactive; negative
mutagenic call (Test System: AMES SALMONELLA TYPHIMURIUM, Strain/Indicator: TA7001, Metabolic Activation: NONE, Method: FLUCTUATION (MICROTITER)): inactive; negative
mutagenic call (Test System: AMES SALMONELLA TYPHIMURIUM, Strain/Indicator: TA7001, Metabolic Activation: RAT LIVER S-9, AROCLOR 1254, Method: FLUCTUATION (MICROTITER)): inactive; negative
mutagenic call (Test System: AMES SALMONELLA TYPHIMURIUM, Strain/Indicator: TA7002, Metabolic Activation: NONE, Method: FLUCTUATION (MICROTITER)): inactive; negative
mutagenic call (Test System: AMES SALMONELLA TYPHIMURIUM, Strain/Indicator: TA7002, Metabolic Activation: RAT LIVER S-9, AROCLOR 1254, Method: FLUCTUATION (MICROTITER)): inactive; negative
mutagenic call (Test System: AMES SALMONELLA TYPHIMURIUM, Strain/Indicator: TA7003, Metabolic Activation: NONE, Method: FLUCTUATION (MICROTITER)): inactive; negative
mutagenic call (Test System: AMES SALMONELLA TYPHIMURIUM, Strain/Indicator: TA7003, Metabolic Activation: RAT LIVER S-9, AROCLOR 1254, Method: FLUCTUATION (MICROTITER)): inactive; negative
mutagenic call (Test System: AMES SALMONELLA TYPHIMURIUM, Strain/Indicator: TA7004, Metabolic Activation: NONE, Method: FLUCTUATION (MICROTITER)): inactive; negative
mutagenic call (Test System: AMES SALMONELLA TYPHIMURIUM, Strain/Indicator: TA7004, Metabolic Activation: RAT LIVER S-9, AROCLOR 1254, Method: FLUCTUATION (MICROTITER)): inactive; negative
mutagenic call (Test System: AMES SALMONELLA TYPHIMURIUM, Strain/Indicator: TA7005, Metabolic Activation: NONE, Method: FLUCTUATION (MICROTITER)): inactive; negative
mutagenic call (Test System: AMES SALMONELLA TYPHIMURIUM, Strain/Indicator: TA7005, Metabolic Activation: RAT LIVER S-9, AROCLOR 1254, Method: FLUCTUATION (MICROTITER)): inactive; negative
mutagenic call (Test System: AMES SALMONELLA TYPHIMURIUM, Strain/Indicator: TA7006, Metabolic Activation: NONE, Method: FLUCTUATION (MICROTITER)): inactive; negative
mutagenic call (Test System: AMES SALMONELLA TYPHIMURIUM, Strain/Indicator: TA7006, Metabolic Activation: RAT LIVER S-9, AROCLOR 1254, Method: FLUCTUATION (MICROTITER)): inactive; negative

CC(=O)c1ccco1
mutagenic call [3]: inactive; negative
mutagenic call [7]: active; positive
mutagenic call [5]: inactive; negative
mutagenic call [8]: inactive; negative
